From PubChem BioAssay (NCI)
Values joined by “and” are separate entries in the source; they are usually repeats but may differ in a detail not shown here. Identical values can stand only once.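 These data come from cells grown in 96-well plates and exposed to compound for 48 hours at five concentrations. GI50 marks 50% less growth. Definition used: TGI = concentration required for complete inhibition of growth.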

What was measured:
Test in all cases: inhibition of tumour cell growth, NCI panel, 48 h
ACHN renal = test system: ACHN renal
HOP-92 NSCLC = test system: HOP-92 NSCLC
HT29 colon = test system: HT29 colon
IGROV1 ovarian = test system: IGROV1 ovarian
MOLT-4 leukemia = test system: MOLT-4 leukemia
NCI-H226 lung = test system: NCI-H226 lung
NCI-H23 lung = test system: NCI-H23 lung
NCI-H460 lung = test system: NCI-H460 lung
OVCAR-8 ovarian = test system: OVCAR-8 ovarian
U251 CNS = test system: U251 CNS

Row | Compound | TGI (ACHN renal) | TGI (HOP-92 NSCLC) | TGI (HT29 colon) | TGI (IGROV1 ovarian) [µM] | TGI (MOLT-4 leukemia) | TGI (NCI-H226 lung) | TGI (NCI-H23 lung) | TGI (NCI-H460 lung) | TGI (OVCAR-8 ovarian) | TGI (U251 CNS) | GI50 (ACHN renal) [µM] | GI50 (HOP-92 NSCLC) [µM] | GI50 (HT29 colon) [µM] | GI50 (IGROV1 ovarian) [µM] | GI50 (MOLT-4 leukemia) [µM] | GI50 (NCI-H226 lung) [µM] | GI50 (NCI-H23 lung) [µM] | GI50 (NCI-H460 lung) [µM] | GI50 (OVCAR-8 ovarian) [µM] | GI50 (U251 CNS) [µM]
1 | COc1ccc2c(c1)[n+]([O-])c(/C(C)=N/NC(N)=S)c(C)[n+]2[O-] | > 100 µM | > 100 µM | > 100 µM | > 100 | > 83.8 µM | > 100 µM | > 100 µM | > 71.4 µM | > 100 µM | > 100 µM |  |  |  |  |  |  |  |  |  | 
2 | Oc1ccccc1/C=N/Nc1nc2ccccc2s1 | > 100 µM | 19.5 µM | > 100 µM | > 100 | > 100 µM | > 100 µM | > 100 µM | > 100 µM | > 100 µM | > 100 µM | 6.14 | 0.74 | 21.1 | 2.77 | 4.4 | 10.7 | 23.3 | 3.41 | 12 | 8.1
3 | O=C1c2cccc3c([N+](=O)[O-])ccc(c23)C(=O)N1CCCCl | > 10 µM | > 10 µM | > 10 µM | 5 | 5.95 µM | > 10 µM | > 10 µM | > 10 µM | > 10 µM | > 10 µM | > 10 | > 10 | 4.25 | 1.9 | 2.41 | 2.83 | 5.07 | 5.55 | 3.86 | > 10
4 | COc1ccc(NC(=O)COc2ccccc2)c(C(N)=O)c1 | > 100 µM | > 78 µM | > 100 µM | > 100 | > 100 µM | > 100 µM | 35.5 µM | > 56.7 µM | > 100 µM | 20.1 µM | 2.98 | 2.87 | 0.43 | 4.71 | 2.67 | 20.9 | 2.61 | 0.605 | 3.01 | 0.742
5 | C=C(c1ccccc1)[C@@]1(O)CCCC[C@H]1NC(c1ccccc1)c1ccccc1 | 23.9 µM | 26.1 µM | 27.3 µM | 42.4 | 8.24 µM | 22.6 µM | 28.7 µM | 28 µM | 28.1 µM | 24.5 µM |  |  |  |  |  |  |  |  |  | 
6 | CN1CCN2c3ccccc3CC(C#N)(C#N)C2C1 (stereo not drawn) | > 100 µM | > 100 µM | > 100 µM | > 100 | > 100 µM | > 100 µM | > 100 µM | > 100 µM | > 100 µM | > 100 µM |  |  |  |  |  |  |  |  |  | 
7 | O=C(/C=C/c1ccccc1)Nc1ncc(Cc2ccccc2)s1 | 31.4 µM | > 84.8 µM | > 32.8 µM | > 64.5 | > 100 µM | > 20.8 µM | > 49.1 µM | 5.01 µM | > 40.9 µM | 6.25 µM | 0.4 | 4.72 | 0.138 | 0.491 | 0.345 | 1.16 | 0.562 | 0.289 | 0.488 | 0.271
8 | COc1cc(/C=C/C(=O)c2ccc(F)cc2)ccc1OCCCCOc1cc2c(cc1OC)C(=O)N1CCCC1C=N2 (stereo not drawn) | > 20.5 µM | 0.673 µM | > 20.4 µM | 3.59 | 2.18 µM | 1.7 µM | > 23.5 µM | 6.67 µM | > 20.2 µM | 7.85 µM | 1.07 |  | 0.895 | 1.83 | 0.317 | 0.683 | 1.47 | 0.83 | 1.55 | 0.704
9 | O=S1(=O)OCc2ccccc21 | > 100 µM | > 100 µM | > 100 µM | > 100 | 78.9 µM | > 100 µM | > 100 µM | > 100 µM | > 100 µM | > 100 µM |  |  |  |  |  |  |  |  |  | 
10 | CS(=O)(=O)OCCCCOS(C)(=O)=O | 250 µM and > 1000 µM | 250 µM and > 948 µM | 250 µM and > 1000 µM | > 1000 | 233 µM and 992 µM | 250 µM and > 1000 µM | 249 µM and > 1000 µM | 242 µM and > 1000 µM | 250 µM and > 1000 µM | 238 µM and > 1000 µM | 354 | 570 | > 846 | 981 |  | > 966 | 685 | 223 | > 873 | 469
11 | CC(C)(C)n1nc(C2CC2)cc1NC(=O)Nc1ccc(Cl)cc1 | > 100 µM | > 100 µM | > 100 µM | > 100 | > 100 µM | > 100 µM | > 100 µM | > 100 µM | > 100 µM | > 100 µM |  |  |  |  |  |  |  |  |  | 
12 | C/C(=N\NC(=O)c1cccc(S(=O)(=O)N2CCN(C)CC2)c1)c1cc(Cl)ccc1O | > 100 µM | > 90.1 µM | 20.1 µM | > 66.5 | > 49.4 µM | 8.42 µM | 45 µM | > 32 µM | > 100 µM | > 100 µM | 0.46 | 4.85 | 0.397 | 0.677 | 0.47 | 0.713 | 0.74 | 0.395 | 0.494 | 0.414
13 | O=c1[nH]ccc2nc(N3CCC(O)CC3)nc(Nc3ccc(N4CCOCC4)cc3)c12 | > 100 µM | 5.02 µM | > 100 µM | > 100 | > 100 µM | > 100 µM | > 100 µM | > 100 µM | > 100 µM | > 100 µM | 0.797 | 0.566 | 1.06 | 0.584 | > 83.8 | > 100 | 8.71 | 2.38 | > 100 | > 81
14 | COc1ccc(C2CC(c3ccc4ccccc4c3)=NN2/C=C2\SC(=S)N(NC(=O)Cc3ccccc3Nc3c(Cl)cccc3Cl)C2=O)cc1 (stereo not drawn) | > 71.5 µM | > 53.4 µM | > 26.3 µM | > 42 | > 100 µM | > 32.3 µM | > 46.8 µM | > 34 µM | > 100 µM | > 36.7 µM | 0.684 | 1.27 | 2.3 | 0.588 | 0.473 | 1.14 | 0.793 | 0.388 | 0.693 | 0.402
15 | O=C(CC(O)c1cccnc1)CC(O)c1cccnc1 (stereo not drawn) | 35.3 µM | 34.5 µM | 20.7 µM | 29.9 | > 52.1 µM | > 100 µM | 52 µM | 35.9 µM | 35.7 µM | 33 µM |  |  |  |  |  |  |  |  |  | 
16 | OCCNC(=S)Nc1ccc(-c2nc(N3C[C@H]4CC[C@@H](C3)O4)c3cccn3n2)cc1 | 1.86 µM | 0.161 µM | 22.5 µM | 0.15 | 17.1 µM | 0.714 µM | 16.7 µM | 19.4 µM | 3.16 µM | 11.6 µM | 0.0502 | < 0.0133 | 0.117 | 0.0165 | 0.09 | 0.0305 | 0.0798 | 0.0312 | 0.173 | 0.114
17 | COC(=O)c1ccc(CS(=O)(=O)c2ccccc2)cc1 | > 100 µM | > 100 µM | > 100 µM | > 100 | > 100 µM | > 100 µM | > 100 µM | > 100 µM | > 100 µM | > 100 µM |  |  |  |  |  |  |  |  |  | 
18 | Cc1ccccc1NC(=O)N/C(N)=N/c1nc(C)c(C)s1 | > 57 µM | > 100 µM | > 33 µM | > 100 | > 100 µM | > 100 µM | > 100 µM | > 100 µM | > 79.6 µM | > 46.6 µM | 0.7 | 30 | 0.104 | 0.35 | 0.467 | 2.08 | 0.519 | 0.376 | 0.512 | 0.305
19 | CN(C)c1ccc(/C=N/NC(=O)CSc2nc3sc4c(c3c(=O)n2-c2ccccc2)CCCCC4)cc1 | > 100 µM | 29 µM | > 100 µM | > 100 | > 100 µM | > 100 µM | > 100 µM | 4.86 µM | > 100 µM | 17.1 µM | 5.59 | 3.55 | 4.31 | 3.08 | > 100 | 4.26 | 3.79 | 2.21 | 4.83 | 3.2
20 | N=C(N)c1ccc(CS(=O)(=O)F)cc1 | > 100 µM | > 100 µM | > 100 µM | > 100 | > 100 µM | > 100 µM | > 100 µM | > 100 µM | > 100 µM | > 100 µM | > 100 | > 100 | > 100 | > 100 | > 100 | > 100 | > 100 | > 100 | > 100 | > 100
21 | Cc1ccc2oc(=O)cc(CC(=O)O)c2c1 | > 100 µM | > 100 µM | > 100 µM | > 100 | > 100 µM | > 100 µM | > 100 µM | > 100 µM | > 100 µM | > 100 µM |  |  |  |  |  |  |  |  |  | 
22 | C/C(=N\NC(=O)C[n+]1ccccc1)c1sc(-c2nc(C)c(/C(C)=N/NC(=O)C[n+]3ccccc3)s2)nc1C | > 100 µM | > 100 µM | > 100 µM | > 100 | > 100 µM | > 100 µM | > 100 µM | > 100 µM | > 100 µM | > 100 µM |  |  |  |  |  |  |  |  |  | 
23 | CC(=O)O[C@H]1CC[C@@]2(C)C(=CC[C@@H]3C2CC[C@]2(C)C(=O)NC(=O)CC32)C1 (stereo partly drawn) | > 100 µM | > 100 µM | > 100 µM | > 100 | > 100 µM | > 100 µM | > 100 µM | > 100 µM | > 100 µM | > 100 µM |  |  |  |  |  |  |  |  |  | 
